According to a melting point compilation (Tetko et al.; mined from patent text by program, amines drawn as free bases though some values may be those of a salt):

Question: Which melting point does the source give for `Cc1nc(C)c(Cl)c(NCc2ccc(Oc3ccc4ncc([N+](=O)[O-])n4n3)c(OC(F)F)c2)n1` here?
Answer: The melting point was 191 to 194 °C.

Question: For `Cn1c(C(F)(F)F)cc(=O)n(-c2c(F)ccc3nc(Cl)sc23)c1=O`, which melting point is on record?
Answer: Its melting point is 69 to 71 °C.

Question: For `CCOC(=O)c1cn(-c2nccs2)c2nc(Cl)cc(C(F)(F)F)c2c1=O`, which melting point is on record?
Answer: The melting point was 184 to 185 °C.

Question: For `COC(=O)/C=C(\Cl)c1ccc(Cl)cc1`, which melting point is on record?
Answer: Its melting point is 40 °C.

Question: With `CC(=O)NCC1CN(c2ccc(N3CCN(c4nnc(N)s4)C(F)C3)cc2)C(=O)O1` (centres undefined) as the compound, how does the melting point read?
Answer: The melting point was 228 to 230 °C.

Question: For `CC1C(=O)N(c2ccc(Sc3ccccc3)cc2)C(=S)N1c1ccccc1` (centres undefined), which melting point is on record?
Answer: The melting point was 136 to 138 °C.

Question: With `N#Cc1ccc(OCCCCCCl)cc1` as the compound, how does the melting point read?
Answer: The melting point was 47 °C.

Question: With `COc1c(NC(=O)c2ccc(Br)cc2)ccc2cc(CN3CCCC3)cnc12` as the compound, how does the melting point read?
Answer: Its melting point is 121 to 122 °C.

Question: With `Cc1cc(=O)n2c3c(cc(C(O)(C(F)(F)F)C(F)(F)F)cc13)OC2` as the compound, how does the melting point read?
Answer: Its melting point is 262 to 264 °C.

Question: For `COc1c(N2CCC(CN)(CF)C2)c(F)cc2c(=O)c(C(=O)O)cn(C3CC3)c12` (centres undefined), which melting point is on record?
Answer: Its melting point is 188 to 190 °C.

Question: With `CCCCCNC(=O)N(C)c1cccc(-c2ccc(CCC(=O)O)cc2OCCOCC)c1` as the compound, how does the melting point read?
Answer: Its melting point is 61 to 62 °C.

Question: Which melting point does the source give for `COc1ccc(C(=C(C=O)c2nnnn2C)c2ccc(OC)cc2)cc1` here?
Answer: The melting point was 130 to 131 °C.

Question: With `Cc1cccc([N+](=O)[O-])c1Br` as the compound, how does the melting point read?
Answer: Its melting point is 36 to 41 °C.

Question: With `CC(=O)Nc1cc(C)c(C)nc1C` as the compound, how does the melting point read?
Answer: Its melting point is 89 to 92 °C.

Question: For `O=C(O)[C@H](Cc1ccccc1)Nc1c(N2CCN(c3ccccc3)CC2)c(=O)c1=O`, which melting point is on record?
Answer: Its melting point is 165 to 167 °C.

Question: For `COc1ccc(CCNc2nc(Cl)ccc2[N+](=O)[O-])cc1OC`, which melting point is on record?
Answer: Its melting point is 132 to 133 °C.

Question: Which melting point does the source give for `C1c2c(-c3nn[nH]n3)n[nH]c2[C@@H]2C[C@H]12` here?
Answer: The melting point was 231 °C.

Question: For `C=CCc1cccc2nc(Cc3ccccc3Cl)oc12`, which melting point is on record?
Answer: The melting point was 61 to 62 °C.

Question: Which melting point does the source give for `CCOC(=O)c1cccc(-c2nc(-c3ccc(C)c(C)c3)cs2)c1` here?
Answer: The melting point was 114 to 115 °C.

Question: With `CC(NC(=O)N(Cc1csc(C(C)C)n1)C1CC1)C(=O)NC(Cc1ccccc1)CC(O)C(Cc1ccccc1)NC(=O)OCc1cncs1` (centres undefined) as the compound, how does the melting point read?
Answer: Its melting point is 65 to 67 °C.

Question: With `Cc1ccc2c(c1)Cn1ccnc1N2` as the compound, how does the melting point read?
Answer: The melting point was 265 °C.

Question: With `CN(C)c1ccc(S(=O)(=O)NCCCCC(=O)O)cc1` as the compound, how does the melting point read?
Answer: The melting point was 105 to 110 °C.

Question: With `N#CSc1cc([N+](=O)[O-])ccc1Cl` as the compound, how does the melting point read?
Answer: Its melting point is 103 °C.

Question: Which melting point does the source give for `CCN(CC)C(=O)C(C)Cc1nc(-c2ccccc2)cc2ccccc12` (centres undefined) here?
Answer: Its melting point is 57 °C.

Question: With `NNc1cc2c(nn1)CCN(C(=O)CC(c1ccccc1)c1ccccc1)C2` as the compound, how does the melting point read?
Answer: Its melting point is 175 to 178 °C.

Question: Which melting point does the source give for `NC(=O)c1cccc(NC(=O)Cc2cccc(Br)c2)c1` here?
Answer: The melting point was 202 °C.

Question: With `Cc1ccc2c(c1)c1cc(-c3ccc(Cl)cc3Cl)c(=O)n(C)c1n2CCOC1CCCCO1` (centres undefined) as the compound, how does the melting point read?
Answer: The melting point was 161 °C.

Question: For `CCCOc1ccccc1-c1nc(O)cc(C(N)=O)n1`, which melting point is on record?
Answer: Its melting point is 234 °C.

Question: With `O=C(NC1CCCCC1)OC1CCN(C(=O)Oc2ccc(Oc3ccccc3)cc2)CC1` as the compound, how does the melting point read?
Answer: The melting point was 137 to 139 °C.

Question: For `Cc1cccc2c1C(=O)c1cc(CC(=O)O)ccc1OC2`, which melting point is on record?
Answer: The melting point was 183 to 185 °C.

Question: With `CCOC=Nc1c(S(=O)C(F)(F)F)c(C#N)nn1-c1c(Cl)cc(C(F)(F)F)cc1Cl` (centres undefined) as the compound, how does the melting point read?
Answer: The melting point was 63 °C.

Question: For `COc1ccc(-c2nc3cc(F)ccc3s2)cc1OC(=O)N1CCOCC1`, which melting point is on record?
Answer: The melting point was 170 °C.

Question: With `COc1cccc(CN2CCN(C)CC2C2=NCCN2)c1OC` (centres undefined) as the compound, how does the melting point read?
Answer: The melting point was 160 to 162 °C.

Question: For `CS(=O)(=O)c1ccc(Oc2ccc(OC(F)(F)C(Cl)Cl)cc2)cc1`, which melting point is on record?
Answer: The melting point was 67 to 70 °C.

Question: Which melting point does the source give for `CC(C)(C)OC(=O)[C@H]1CCCN1S(=O)(=O)c1ccc2c(Cl)cnc(Cl)c2c1` here?
Answer: The melting point was 80 to 82 °C.

Question: Which melting point does the source give for `O=C(O)Cn1cc(Cc2nc3cc(C(F)(F)F)ccc3s2)c2ccc(Br)cc21` here?
Answer: The melting point was 265 to 267 °C.

Question: Which melting point does the source give for `Cc1c(Br)c2c(c(C)c1NC(=O)OC(C)(C)C)CC(C)(C)O2` here?
Answer: Its melting point is 115 to 117 °C.

Question: Which melting point does the source give for `Cc1cc(C(=O)NC2CCCCC2)ccc1[N+](=O)[O-]` here?
Answer: Its melting point is 134 to 141 °C.

Question: Which melting point does the source give for `COc1cccc(Sc2ccc(O)cc2)n1` here?
Answer: The melting point was 88.5 to 94.5 °C.

Question: Which melting point does the source give for `CC(C)(C)OC(=O)NCC(=O)OCCCNc1ccc(O)c2c1C(=O)c1ccccc1C2=O` here?
Answer: The melting point was 124 °C.

Question: For `CSc1ccc(-c2nn(Cc3ccc(Cl)cc3Cl)c(=S)cc2-c2ccc(Cl)cc2)cc1`, which melting point is on record?
Answer: Its melting point is 183 °C.

Question: Which melting point does the source give for `Cc1ccc(C(=O)O)nn1` here?
Answer: The melting point was 174 °C.

Question: With `CCCCCCCCCCC(=O)C(=O)N[C@@H](CCC(=O)O)C(=O)O` as the compound, how does the melting point read?
Answer: Its melting point is 97 to 98 °C.

Question: Which melting point does the source give for `CC(=O)N(C)c1cc(C(=O)C=CN(C)C)ccc1F` here?
Answer: The melting point was 131 to 132 °C.

Question: With `CCOC(=O)c1cn(-c2nccs2)c2nc(Cl)cc(Cl)c2c1=O` as the compound, how does the melting point read?
Answer: Its melting point is 226 to 227 °C.

Question: Which melting point does the source give for `O=C(O)c1c[nH]c2cc(C(F)(F)F)nn2c1=O` here?
Answer: Its melting point is over 340 °C.

Question: Which melting point does the source give for `CON=C(Cl)c1ccccc1OCc1ccc(Cl)cc1Cl` here?
Answer: Its melting point is 91 to 92 °C.

Question: With `CC[C@H](C)[C@H](NC(=O)O[C@@H](CC(C)C)C(=O)O)C(N)=O` as the compound, how does the melting point read?
Answer: The melting point was 170 to 175 °C.

Question: For `S=C=NCc1ccc(Cl)nc1`, which melting point is on record?
Answer: Its melting point is 22 °C.
